# Experimental data taken from patent US20230240953A1, “AN ANTIMICROBIAL COMPOSITION, PROCESS FOR PREPARING THE SAME AND METHOD OF USE THEREOF” (ISP INVESTMENTS LLC, priority 2020, published 2023).
# Where two headings read alike, the source gives them in different places.
# Experiments:
# Assay in all cases: Checkerboard microplate synergy assay, compound A = HPB
# Type in all cases: cell-based
# [1] = test system: Burkholderia cepacia 25416; conditions: for Interaction / SI index (Synergy Index = Qa/QA+Qb/QB): HPB + compound B
# Description: (§1) The synergistic antimicrobial effect was determined using a commonly accepted method described by Kull A. C, Eisman, P. C. Sylwestrowicz, H. D. and Mayer, R. L. 1961. Applied Microbiology, 9:538-541
# (§2) Briefly, the standard checkerboard approach was used to make all the dilutions. HPB (compound A) solution was prepared and then serially diluted in DMSO using the 96-well dilution plate. Automated liquid handler was then used to stamp multiple assay plates using this dilution plate. Each well of the assay plate was then supplemented with a predetermined concentration of the second antimicrobial (compound B). The final concentration of DMSO was kept constant across the plate for each assay, not exceeding 3% (w/w).
# (§3) To evaluate antibacterial activity of the actives, freshly prepared S. aureus and B. cepacia cells were harvested and resuspended in Trypticase Soy Broth (TSB). The cell suspension was then added to the wells of the appropriate plates with the final cell density being 10^6 cfu/ml. Fungal plates were incubated at 28° C. for 4-5 days, prior to being evaluated. Bacterial plates were incubated for 48 hours at 35° C. prior to being evaluated.
# (§4) Synergy Index (SI)=Qa/QA+Qb/QB • Qa is the MIC of compound A (HPB) in ppm, when compound A is being used in combination with compound B • QA is the MIC of compound A (HPB) in ppm, acting alone • Qb is the MIC of compound B in ppm, when the compound B is being used in combination with compound A • QB is the MIC of compound B in ppm, acting alone Each ratio Qa/QA and Qb/QB is sometimes referred to as Fractional Inhibitory Concentrations (FICs) of compounds A and B, respectively, when these two compounds are being used in combination with one another. The sum of FICs constitute the Synergy Index (SI). The synergistic effect is indicated if the Synergy Index is below one (SI<1). An additive effect is indicated if the Synergy Index is equal to one (SI=1). An antagonistic effect is indicated if synergy index is greater than one (SI>1). The lower the SI index the greater the synergy.
# [2] = test system: Staphylococcus aureus 6538; conditions: for Interaction / SI index (Synergy Index = Qa/QA+Qb/QB): HPB + compound B
# Description: as §1, §2, §3, §4
# [3] = test system: Aspergillus brasiliensis 16404; set-up: key to SI index (Synergy Index = Qa/QA+Qb/QB): SI = Qa/QA + Qb/QB (MICs in ppm); <1 synergy, =1 additive, >1 antagonism; conditions: for MIC: Aspergillus brasiliensis, 16404, compound B alone, read-out: Compound B (Qb): MIC of compound B acting alone; for Interaction / SI index (Synergy Index = Qa/QA+Qb/QB): HPB + compound B
# Description: as §1, §2
# To evaluate antifungal activity of the actives, freshly prepared A. brasiliensis spores were harvested and resuspended in Yeast and Malt Broth (YMB). The spore suspension was then added to the appropriate plates with the final density being 10^5 cfu/ml.
# as §3, §4
# [4] = Burkholderia cepacia, 25416, B. cepacia, compound B alone, read-out: Compound B (Qb): MIC of compound B acting alone
# [5] = Staphylococcus aureus, 6538, S. aureus, compound B alone, read-out: Compound B (QB): MIC of compound B acting alone
Compound,Interaction ([1]; B. cepacia),SI index (Synergy Index = Qa/QA+Qb/QB) ([1]; B. cepacia),Compound B (Qb): MIC of compound B when used in combination with HPB ([1]; B. cepacia),MIC [3] [µg/mL],Interaction [3],SI index (Synergy Index = Qa/QA+Qb/QB) [3],Compound B (Qb): MIC of compound B when used in combination with HPB [3],Compound B (Qb): MIC of compound B acting alone [3],further results
OCCc1ccccc1 [Phenethyl alcohol],synergistic,0.625,125 ppm,,,,,,"MIC [1, 4]: 1000 µg/mL; Interaction ([2]; S. aureus): synergistic; SI index (Synergy Index = Qa/QA+Qb/QB) ([2]; S. aureus): ≤0.75; Compound B (Qb): MIC of compound B when used in combination with HPB ([2]; S. aureus): 2,000 ppm; MIC [2, 5]: ≥ 4000 µg/mL"
"CCCC(O)CO (stereo not shown) [1,2-Pentanediol]",,,,100000,Additive (An additive effect is indicated if the Synergy Index is equal to one (SI=1)),1,"50,000 ppm",,
O=C(O)C=Cc1ccccc1 [Cinnamic acid],,,,500,Additive (An additive effect is indicated if the Synergy Index is equal to one (SI=1)),1-2,500 ppm,,
"CCCCNC(=O)OCC#CI [lodopropynyl butylcarbamate (IPBC), lodopropynyl butylcarbamate]",synergistic,0.508,2 ppm,,,,,,"Compound B (QB): MIC of compound B acting alone ([1]; B. cepacia, compound B alone): 250 ppm"
OCCCc1ccccc1,synergistic,0.75,156 ppm,,,,,,"Compound B (QB): MIC of compound B acting alone ([1]; B. cepacia, compound B alone): 625 ppm; Interaction ([2]; S. aureus): synergistic; SI index (Synergy Index = Qa/QA+Qb/QB) ([2]; S. aureus): ≤0.5625; Compound B (Qb): MIC of compound B when used in combination with HPB ([2]; S. aureus): 156 ppm; Compound B (QB): MIC of compound B acting alone ([2]; S. aureus, compound B alone): 2,500 ppm"
O=P(O)(O)O[C@H]1[C@H](OP(=O)(O)O)[C@@H](OP(=O)(O)O)[C@H](OP(=O)(O)O)[C@@H](OP(=O)(O)O)[C@H]1OP(=O)(O)O [Phytic acid],,,,12500,Synergistic (The synergistic effect is indicated if the Synergy Index is below one (SI<1)),0.75,"3,125 ppm",,
CCCCCCCC(=O)NO [Caprylhydroxamic acid],synergistic,0.75,31.3 ppm,250,Synergistic (The synergistic effect is indicated if the Synergy Index is below one (SI<1)),0.5625,125 ppm,,"MIC [1, 4]: 125 µg/mL; Interaction ([2]; S. aureus): synergistic; SI index (Synergy Index = Qa/QA+Qb/QB) ([2]; S. aureus): ≤0.625; Compound B (Qb): MIC of compound B when used in combination with HPB ([2]; S. aureus): 125 ppm; MIC [2, 5]: 1000 µg/mL"
O=C(O)CN(CCN(CC(=O)O)CC(=O)O)CC(=O)O [EDTA],,,,,Synergistic (The synergistic effect is indicated if the Synergy Index is below one (SI<1)),0.56,800 ppm,"12,500 ppm",
COc1ccc(C(=O)O)cc1 [Anisic acid],,,,,Synergistic (The synergistic effect is indicated if the Synergy Index is below one (SI<1)),0.75,250 ppm,"1,000 ppm",
CCCCCCCCCCCCCC[N+](C)(C)C.[Br-] [Tetradecyl trimethyl ammonium bromide],synergistic,0.625,6.3 ppm,25,Synergistic (The synergistic effect is indicated if the Synergy Index is below one (SI<1)),0.375,3.1 ppm,,"MIC [1, 4]: 50 µg/mL; Interaction ([2]; S. aureus): synergistic; SI index (Synergy Index = Qa/QA+Qb/QB) ([2]; S. aureus): ≤0.5; Compound B (Qb): MIC of compound B when used in combination with HPB ([2]; S. aureus): 0.4 ppm; MIC [2, 5]: 1.6 µg/mL"
Glyceryl caprylate/caprate,,,,,Synergistic (The synergistic effect is indicated if the Synergy Index is below one (SI<1)),0.75,800 ppm,"3,125 ppm",
CCCCC(CC)COCC(O)CO (stereo not shown) [Ethylhexylglycerin],,,,,Synergistic (The synergistic effect is indicated if the Synergy Index is below one (SI<1)),0.56,100 ppm,"1,600 ppm",
OCc1ccccc1 [Benzyl alcohol],,,,5000,Synergistic (The synergistic effect is indicated if the Synergy Index is below one (SI<1)),0.75,"2,500 ppm",,"Interaction ([2]; S. aureus): synergistic; SI index (Synergy Index = Qa/QA+Qb/QB) ([2]; S. aureus): ≤0.625; Compound B (Qb): MIC of compound B when used in combination with HPB ([2]; S. aureus): 625 ppm; MIC [2, 5]: 5000 µg/mL"
COc1ccc(C=O)cc1OC [Veratraldehyde],synergistic,0.75,1000 ppm,2000,Synergistic (The synergistic effect is indicated if the Synergy Index is below one (SI<1)),0.625,"1,000 ppm",,"MIC ([1]; Burkholderia cepacia, 25416, read-out: Compound B (Qb): MIC of compound B acting alone): 2000 µg/mL; Interaction ([2]; S. aureus): synergistic; SI index (Synergy Index = Qa/QA+Qb/QB) ([2]; S. aureus): ≤0.625; Compound B (Qb): MIC of compound B when used in combination with HPB ([2]; S. aureus): 1,000 ppm; MIC ([2]; Staphylococcus aureus, 6538, read-out: Compound B (QB): MIC of compound B acting alone): ≥ 8000 µg/mL"
"OCCCO [1,3-Propanediol]",,,,,Additive (An additive effect is indicated if the Synergy Index is equal to one (SI=1)),≤1,"100,000 ppm","≥200,000 ppm",
[F-].[Na+] [Sodium fluoride],synergistic,≤0.625,"10,000 ppm",,,,,,"Compound B (QB): MIC of compound B acting alone ([1]; B. cepacia, compound B alone): ≥200,000 ppm"
O=C(O)c1ccccc1 [Benzoic acid],,,,1000,Synergistic (The synergistic effect is indicated if the Synergy Index is below one (SI<1)),0.75,500 ppm,,
"CCCCC(O)CO (stereo not shown) [1,2-Hexanediol]",,,,12500,Additive (An additive effect is indicated if the Synergy Index is equal to one (SI=1)),1,"6,300 ppm",,
"CCCCCCC(O)CO (stereo not shown) [1,2-Octanediol]",,,,1600,Synergistic (The synergistic effect is indicated if the Synergy Index is below one (SI<1)),0.56,100 ppm,,
O=C(O)CC[C@@H](C(=O)O)N(CC(=O)O)CC(=O)O [GLDA],,,,,Synergistic (The synergistic effect is indicated if the Synergy Index is below one (SI<1)),0.75,"1,600 ppm","6,250 ppm",
Hexyl glycerin,,,,,Additive (An additive effect is indicated if the Synergy Index is equal to one (SI=1)),1,"1,600 ppm","3,125 ppm",
Cc1occc(=O)c1O [Maltol],,,,2000,Synergistic (The synergistic effect is indicated if the Synergy Index is below one (SI<1)),0.75,"1,000 ppm",,
